The test system of assay [1] is OT-1 CTL cells. The assay can be described thus: Secretion of CTL effector molecules on co-culture with EG7-PD-L1 target cells (flow cytometry). The settings on record: CTL : EG7-PD-L1 1:1, GolgiPlug 6 hours; FIG. 3. The format is cell-based, mouse. The procedure: (§1) (1) Preparation of CTL cells: The spleens of OT1 mice were obtained, ground and added with red blood cell lysate, to prepare single-cell suspension. The culture medium was 1640+10% FBS+50 μM βME+10 nM IL-2. Cell density was adjusted to about 2-4 million/mL. The cells were added with 10 nM OVA257-264, and cultured in a cell incubator at 37° C., 5% CO2. From the day of CTL preparation, cells were stained with FITC-labeled PD-1 antibody every day, and the changes of PD-1 expression on the cell surfaces were detected by flow cytometry.
(3) CTL cells and target cells EG7 (EL4 lymphoma cells expressing chicken ovalbumin) were mixed and cultured at a concentration of 1:1. The cell mixture was treated with 1 μM protein transport inhibitor GolgiPlug™ for 6 hours, and then fixed by 4% paraformaldehyde. The cells were then treated with 0.1% saponin, and stained with antibodies against each effector molecule. The effect of MTC on the secretion of CTL effector molecules was detected by flow cytometry.

In assay [2] the target is T1, PD-1 recruitment of SHP2 (Homo sapiens, UniProt Q06124+Q15116).
T1 construct: expressed in transfected cells
Description: Confocal localization of PD-1-GFP and SHP2-mCherry in 293T cells. The format is cell-based. The settings on record: 293T stable cell line, MTC 6 hours, then 1 μM PVD 5 minutes. How it is done: (2) Fusion genes PD-1-GFP and SHP2-mCherry were transfected into 293T cells with liposomes to construct a stable cell line. The cells were added with MTC at different concentrations, cultured for 6 hours, and then treated with 1 μM PVD (a dephosphorylase inhibitor) for 5 minutes. Cells were fixed with 4% paraformaldehyde and the effect of MTC on the localization of GFP and mCherry, namely PD-1 and SHP2, was observed under Confocal.

A further assay deals with B16-WT cells. Description: Killing of B16-WT melanoma cells, with or without CTL cells. The format is cell-based, mouse. The following applies: FIG. 4E. How it is done:
(§2) (4) The B16-OVA group received no treatment, and the medium was replaced with water in the Water group. The other groups were treated with 10 μg/mL IFNγ. After 24 hours, except for the B16-OVA group, each group was co-cultured with CTL cells at a ratio of 1:5 for 4 hours, and treated with MTC […], LMT (1 μM) or anti-PD1 (PD-1 antibody, 10 μg/mL, Nivolumab, BMS). The death of B16-OVA in each group was observed by microscope, and then the killing ability of CTL cells to target cells was assessed. […] The IFN-γ+MTC group and the IFN-γ+LMT group were treated with 10 μg/mL IFN-γ for 24 hours. The cells were then mixed with CTL cells at a ratio of 1:5, co-cultured for 4 hours and treated with MTC (1 μM) or LMT (1 μM). The MTC and LMT groups were treated with MTC (10 μM) or LMT (10 μM) only. The killing ability against target cells was observed.

In assay [3] the test system is OT-1 CTL cells. The assay can be described thus: CTL cell division under PD-L1 protein inhibition (CFSE, flow cytometry). The format is cell-based. The following applies: 100 nM MTC; 10 nM SIINFEKL, 10 nM IL-2, 10 μg/mL mouse PD-L1 protein; 24, 48, 72 hours; FIG. 2B. The procedure: as §1
(2) The CTL cells were labeled with 5 nM CFSE, stimulated by 10 nM SIINFEKL and 10 nM IL-2, and added with 10 μg/mL mouse PD-L1 protein. The experimental group was also added with 100 nM MTC and stimulated for 24, 48, and 72 hours. The effects of PD-L1 protein and MTC on CTL cell division were observed by flow cytometry.

The target in assay [4] is T1, PD-1 recruitment of SHP2. The assay can be described thus: Co-IP of PD-1-Flag and SHP2 in 293T cells. It counts as cell-based. The settings on record: 293T co-transfected with PD-1-Flag and SHP2 plasmids, MTC at different concentrations; FIG. 7C. The procedure: (3) The PD-1-Flag plasmid and SHP2 plasmid were co-transfected in 293T cells, and the cells were then treated with MTC at different concentrations. The ability of PD-1 to recruit SHP2 was detected by Co-IP.

In another assay the test system is B16-OVA cells. The assay can be described thus: CTL killing of IFN-γ-treated B16-OVA melanoma cells (microscope). The format is cell-based, mouse. The procedure: (3) Melanoma cells B16-OVA (B16 cells expressing OVA gene) were treated with 10 μg/mL IFN-γ for 24 hours, and then mixed with CTL cells at a ratio of 1:5 and co-cultured for 4 hours. Cells were treated with 1 μM MTC. B16-OVA cells treated with DMSO or MTC only (without IFN-γ treatment) were used as control. The apoptosis of B16-OVA was observed by microscope, and then the killing ability of CTL cells to target cells was assessed.
as §2

The test system of assay [5] is Jurkat-PD-1-NFAT-LUC cells. Description: NFAT-luciferase activity in Jurkat-PD-1-NFAT-LUC cells co-cultured with Raji-PD-L1 cells. The format is cell-based, human. The following applies: 4.86 μM MTC or LMT added with Raji-PD-L1 cells, 6 h co-culture; FIG. 1E. How it is done:
(1) Jurkat cells were used to construct a stable cell line expressing PD-1. The pCAGin-PD-1 plasmid was electroporated into Jurkat cells, which were then screened with 900 μg/mL G418 antibiotic and flow-sorted for single clones. Jurkat-PD-1 cells were then electroporated into a DNA fragment that controls the luciferase gene through the NFAT-binding site (referred to as NFAT-LUC). A single clone was then flow-sorted and named clone 5. Using this cell, the expression level of IL-2 can be measured by the activity of luciferase. Raji cells stably expressing PD-L1 were constructed, and the pCDNA-PD-L1 plasmid was electroporated into the Raji cells, followed by screening with 2 μg/mL puromycin, and then flow-sorted single clones and named clone 1.
(4) A 96-well plate was coated with 10 μg/mL CD3 antibody/10 μg/mL CD28 antibody overnight at 4° C., and excess antibody then washed off with PBS. Raji cells or Raji-PD-L1 cells were co-cultured with Jurkat-PD-1-NFAT-LUC cells at a ratio of 1:1, or to a mixture of Raji-PD-L1 cells and Jurkat-PD-1-NFAT-LUC cells at a ratio of 1:1 was added 4.86 μM MTC or LMT. Luciferase substrate was added after 6h co-culture and the luciferase activity was measured by a microplate reader.

T1 sequence (Q15116 25-288): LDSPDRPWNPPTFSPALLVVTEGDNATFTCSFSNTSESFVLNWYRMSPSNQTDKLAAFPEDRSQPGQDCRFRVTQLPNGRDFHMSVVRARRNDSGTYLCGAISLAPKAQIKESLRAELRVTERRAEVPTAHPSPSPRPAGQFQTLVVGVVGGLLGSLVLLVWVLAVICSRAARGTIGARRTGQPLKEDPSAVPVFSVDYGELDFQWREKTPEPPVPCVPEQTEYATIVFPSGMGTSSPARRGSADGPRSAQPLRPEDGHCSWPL
T1 sequence (Q06124 whole entry): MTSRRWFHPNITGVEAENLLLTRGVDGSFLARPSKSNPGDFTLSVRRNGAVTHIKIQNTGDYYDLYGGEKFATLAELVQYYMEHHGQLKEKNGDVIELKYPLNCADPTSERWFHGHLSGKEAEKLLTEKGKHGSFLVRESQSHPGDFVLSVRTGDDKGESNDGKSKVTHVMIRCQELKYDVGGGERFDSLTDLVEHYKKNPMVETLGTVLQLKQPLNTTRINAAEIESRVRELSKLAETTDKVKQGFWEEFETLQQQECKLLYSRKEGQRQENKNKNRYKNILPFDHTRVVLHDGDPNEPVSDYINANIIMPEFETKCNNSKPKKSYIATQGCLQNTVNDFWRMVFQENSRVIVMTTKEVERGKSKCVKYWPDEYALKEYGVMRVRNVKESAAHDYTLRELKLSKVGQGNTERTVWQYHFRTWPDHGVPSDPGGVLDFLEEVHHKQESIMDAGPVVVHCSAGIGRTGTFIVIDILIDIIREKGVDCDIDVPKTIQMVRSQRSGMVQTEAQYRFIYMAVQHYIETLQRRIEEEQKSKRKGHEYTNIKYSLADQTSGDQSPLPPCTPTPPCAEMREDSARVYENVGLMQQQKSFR

Take `CN(C)c1ccc2nc3ccc(N(C)C)cc3[s+]c2c1` [MTC, 3,7-bis(dimethylamino)-phenothiazine-5-ium chloride]: in the assay on OT-1 CTL cells [1], the “secretion of Granzyme B in CTL cells” value was “increased sharply”, the “secretion of IFNγ in CTL cells” value was “increased sharply”, the “secretion of IL-2 in CTL cells” value is given as “increased sharply” and the “secretion of perforin in CTL cells” value was “increased sharply”. For the same molecule, on PD-1 recruitment of SHP2 [2], the “localization of SHP2-mCherry relative to PD-1-GFP” value is “dissociation of mCherry from the membrane”. In addition, in the assay with B16-WT cells (IFN-γ 10 μg/mL 24 hours, B16-WT : CTL 1:5, 4 hours, MTC (1 μM) or LMT (1 μM)), the “killing effect on B16-WT cells, combination with CTL cells” value is reported as “no killing effect”. In addition, in the assay on B16-WT cells (MTC (10 μM) or LMT (10 μM) only), the “killing effect on B16-WT cells, compound only” value is recorded as “no killing effect”. Further, the “CTL cell division inhibited by PD-L1 protein” value in the assay with OT-1 CTL cells [3] was “reversed the inhibition”. Also, the “binding of PD-1 to SHP2 (Co-IP)” value at PD-1 recruitment of SHP2 [4] is “prevented the binding of PD-1 to SHP2”. Also, the “killing effects of CTL cells to B16-OVA cells” value in the assay on B16-OVA cells (B16-OVA treated with 10 μg/mL IFNγ 24 hours, B16-OVA : CTL 1:5, 4 hours, MTC (1 µM), LMT (1 μM), FIGS. 4C and 4D) is on record as “significantly enhanced”. Also, in the assay on B16-OVA cells (MTC (1 µM) or LMT (1 μM) vs anti-PD1 10 μg/mL, FIG. 4D), the “combined killing effect with CTL cells on B16-OVA compared with the anti-PD-1 group” value is “significantly stronger than that of the anti-PD-1 group”. The luciferase activity entry in assay [5] is reported as “increased dramatically”.

Values taken from patent US20220323454A1, “PHENOTHIAZINES AND THEIR DERIVATIVES FOR USE AS A MEDICAMENT” (Guangzhou Virotech Pharmaceutical Co., Ltd., priority 2019, published 2022).
